Laboratory results as given in US9115092B2, “Substituted quinazoline and pyrido-pyrimidine derivatives” (Asana Biosciences, LLC, priority 2010, dated 2015).

Key:
[1] = system: pS6RP in PC3 tumor; test: In vivo PK/PD study, PC3 tumor bearing mice, pS6RP; conditions: Mus musculus
Description: (§1) PC3 cells were cultured at 37° C. in a 5% CO2 incubator using Hams F12 K medium. Ten million (10^7) cells were injected subcutaneously to the right flank region of athymic male mice (Harlan, age: 6-7 weeks, weight: about 20 g). Tumor bearing mice were randomized when the tumor volume reached about 250 mm^3 and three mice were used per each time point. Test compounds of formula (I) were formulated in 40% HPCD in 1×PBS, pH 7.4 and dosed orally at 50 mg/kg single dose (dose volume−10 mL/kg). Plasma and tumor samples were collected at 0 (vehicle control animals), 1, 4 and 24 hours post dosing. Blood was drawn (retro orbital) to a tube containing 0.2% EDTA for plasma collection. The tumor was excised from the mouse and immediately frozen in liquid nitrogen for PD analysis. Tumor and plasma drug concentrations were measured for PK analysis using LC-MS.
(§2) Snap frozen tumor samples were pulverized in a mortar (Belart) containing liquid nitrogen and tumor powder was stored at −80° C. until analysis. Pre coated ELISA kits (Cell Signaling Technology; pAKT(T308), CST#7135; pAKT(5473), CST#7134 and pS6RP, CST#7205) were used for PD analysis. Tumor powder was transferred to Eppendorf® tubes and lysis buffer (1 mL) was added to the powder. Protease and phosphatase inhibitors (SIGMA) and phenylmethanesulfonylfluoride (PMSF) were added to tumor powder and mixed by vortexing followed by sonication (15 sec). Samples were kept on an ice bath for 30 min. Supernatant was separated after centrifugation at 10,000 rpm for 20 min at 4° C. Supernatant was re-centrifuged and fresh supernatant was aliquoted to different tubes. Total protein was estimated using a BCA kit (Thermo Scientific) and 50 μg total protein was loaded to each well. ELISA analysis was carried out as per manufacturer's instructions. The detection for pAKT was based on chemiluminescence and pS6RP was based on absorbance. Qualitative assessments of the suppression of pAKT(T308), pAKT(5473), and pS6RP were also carried out by standard Western blot analyses.
For example, the compound of Example 1, at 50 mg/kg po, caused about 50% inhibition of pAkt(5473) at 1 and 4 hours and >50% inhibition of pS6RP at 1, 4 and 24 hours. Also, the compound of Example 2, at 50 mg/kg po, caused about 25-30% inhibition of pAkt(5473) at 4 and 24 hours and >50% inhibition of pS6RP at 1, 4 and 24 hours. The compound of example 51, at 30 mg/kg po, caused >50% inhibition of pS6RP at 2, 4 and 24 hours. Also, the compounds of examples 133, 146, 147, and 228, at 50 mg/kg po, each caused >50% inhibition of pS6RP at 3 and 8 hours.

[2] = system: pAKT(5473) in PC3 tumor; test: In vivo PK/PD study, PC3 tumor bearing mice, pAkt(5473); conditions: Mus musculus, 50 mg/kg po single dose
Description: as §1
(§3) Snap frozen tumor samples were pulverized in a mortar (Belart) containing liquid nitrogen and tumor powder was stored at −80° C. until analysis. Pre coated ELISA kits (Cell Signaling Technology; pAKT(T308), CST#7135; pAKT(5473), CST#7134 and pS6RP, CST#7205) were used for PD analysis. Tumor powder was transferred to Eppendorf® tubes and lysis buffer (1 mL) was added to the powder. […] The detection for pAKT was based on chemiluminescence and pS6RP was based on absorbance. […]

[3] = system: pAkt(5473) in BT474 tumor; test: In vivo PK/PD study, BT474 tumor-bearing xenograft mice, pAkt(5473); conditions: 2 weeks at 40 mg/kg bid po
Description: as §1
(§4) Snap frozen tumor samples were pulverized in a mortar (Belart) containing liquid nitrogen and tumor powder was stored at −80° C. until analysis. […] The detection for pAKT was based on chemiluminescence and pS6RP was based on absorbance. […]
(§5) In vivo pharmacokinetic/pharmacodynamic (PK/PD) studies were also carried out using BT474 tumor cells and the corresponding tumor-bearing xenograft mice, and compounds of the invention were determined to be active in this assay. […]

[4] = system: pAkt(T308) in BT474 tumor; test: In vivo PK/PD study, BT474 tumor-bearing xenograft mice, pAkt(T308); conditions: 2 weeks at 40 mg/kg bid po
Description: as §1, §4, §5

[5] = system: pS6RP in BT474 tumor; test: In vivo PK/PD study, BT474 tumor-bearing xenograft mice, pS6RP; conditions: for suppression of pS6RP in tumor tissue samples by Western blot: 2 weeks at 40 mg/kg bid po
Description: as §1
as §2, with “ELISA analysis was carried out as per manufacturer's instructions.” left out, “Qualitative assessments of the suppression of pAKT(T308), pAKT(5473), and pS6RP were also carried out by standard Western blot analyses.” left out
as §5

[6] = system: BT474 tumor cells; test: In vivo efficacy study (tumor growth suppression), BT474 xenograft; conditions: BT474 xenograft mice, after 14 days of dosing at 40 mg/kg bid po
[7] = system: pAKT(T308) in PC3 tumor; test: In vivo PK/PD study, PC3 tumor bearing mice, pAkt(T308) Western blot; conditions: 50 mg/kg po, at 8 hours
Description: as §1, §3

[8] = 50 mg/kg po single dose, at 1, 4 and 24 hours

Row | Structure (SMILES) | inhibition at 50 mg/kg [1, 8] | suppression of pAkt(5473) in tumor tissue samples by Western blot [3] | suppression of pAkt(T308) in tumor tissue samples by Western blot [4] | suppression of pS6RP in tumor tissue samples by Western blot [5] | tumor growth inhibition relative to vehicle control group [6] | inhibition at 50 mg/kg ([1]; 50 mg/kg po, at 3 and 8 hours) | suppression of pAkt(T308) by Western blot analysis [7] | other results
1 | CN(C)C(=O)c1ccc(NC(=O)Nc2ccc(-c3nc(N4CCOCC4)c4ccc(-c5cncnc5)cc4n3)cc2)cc1 [Example 1, N,N-Dimethyl-4-(3-{4-[4-morpholin-4-yl-7-pyrimidin-5-yl-quinazolin-2-yl)-phenyl]-ureido}-benzamide] | > 50% | – | – | – | – | – | – | inhibition at 50 mg/kg ([2]; at 1 and 4 hours): ~50%
2 | Cc1ccc(-c2ccc3c(N4CCOCC4)nc(-c4ccc(NC(=O)Nc5ccc(C(=O)N(C)C)cc5)cc4)nc3c2)o1 [Example 2, N,N-Dimethyl-4-(3-{4-[7-(5-methyl-furan-2-yl)-4-morpholin-4-yl-quinazolin-2-yl]-phenyl}-ureido)-benzamide] | > 50% | significant suppression | significant suppression | significant suppression | about 65% | – | – | inhibition at 50 mg/kg ([2]; at 4 and 24 hours): 25 to 30%
3 | CN(C)C(=O)c1ccc(NC(=O)Nc2ccc(-c3nc(N4CCOCC4)c4ccc(-c5ccco5)cc4n3)cc2)cc1 [Example 51, 4-{3-[4-(7-furan-2-yl-4-morpholin-4-yl-quinazolin-2-yl)-phenyl]-ureido}-N,N-dimethyl-benzamide] | – | significant suppression | significant suppression | significant suppression | about 70% | – | – | inhibition at 30 mg/kg ([1]; 30 mg/kg po, at 2, 4 and 24 hours): > 50%; inhibition at 30 mg/kg ([5]; Mus musculus, BT-474, 30 mg/kg po, at 4 and 24 hours): 30 to 40%
4 | CN(C)C(=O)c1ccc(NC(=O)Nc2ccc(-c3nc(N4CCOCC4)c4ccc(-c5cncnc5)cc4n3)cc2)c(F)c1 [Example 133, 3-fluoro-N,N-dimethyl-4-(3-(4-(4-morpholino-7-(pyrimidin-5-yl)quinazolin-2-yl)phenyl)ureido)-benzamide] | – | – | – | – | – | > 50% | significant suppression | –
5 | CN(C)C(=O)c1ccc(NC(=O)Nc2ccc(-c3nc(N4CCOCC4)c4ccc(-c5cccnc5F)cc4n3)cc2)c(F)c1 [Example 146, 3-fluoro-4-(3-(4-(7-(2-fluoropyridin-3-yl)-4-morpholino-quinazolin-2-yl)phenyl)ureido)-N,N-dimethyl-benzamide] | – | – | – | – | – | > 50% | significant suppression | –
